This experiment has as its target T1, CCR2 (Homo sapiens, UniProt P41597).
T1 construct: host or cells: THP-1 human monocytic cells
T1 sequence (P41597 1-360 isoform P41597-2): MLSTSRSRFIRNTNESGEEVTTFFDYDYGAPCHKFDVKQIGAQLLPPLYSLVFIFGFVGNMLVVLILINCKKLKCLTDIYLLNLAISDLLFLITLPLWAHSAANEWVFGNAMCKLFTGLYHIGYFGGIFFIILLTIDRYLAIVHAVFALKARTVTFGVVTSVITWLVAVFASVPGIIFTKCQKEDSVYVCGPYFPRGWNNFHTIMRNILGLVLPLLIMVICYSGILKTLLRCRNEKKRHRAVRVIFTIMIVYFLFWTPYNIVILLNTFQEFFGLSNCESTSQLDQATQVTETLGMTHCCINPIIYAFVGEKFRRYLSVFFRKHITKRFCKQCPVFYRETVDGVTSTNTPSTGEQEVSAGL
The experiment in a line: MCP-1 Receptor Binding Assay in THP-1 Cells. The following applies: 0.5 nM 125I labeled MCP-1, 2 hours at 30° C., less polar isomer tested where stated, read-out: Inhibition of MCP-1 Binding IC50, CCR2 Binding. The procedure: MCP-1 Receptor Binding Assay in THP-1 Cells
Human monocytic cell line THP-1 cells were obtained from American Type Culture Collection (Manassas, Va., USA). The THP-1 cells were grown in RPMI-1640 (RPMI: Roswell Park Memorial Institute Medium-cell culture growth media) supplemented with 10% fetal bovine serum in a humidified 5% CO2 atmosphere at 37° C. The cell density was maintained […].
THP-1 (cells were incubated with 0.5 nM ^125I labeled MCP-1 (Perkin-Elmer Life Sciences, Inc. Boston, Mass.) in the presence of varying concentrations of either unlabeled MCP-1 (R & D Systems, Minneapolis, Minn.) or test compound for 2 hours at 30° C. in a 96 well plate. Cells were then harvested onto a filter plate, dried, and 20 μL of Microscint 20 was added to each well. Plates were counted in a TopCount NXT, Microplate Scintillation & Luminescence Counter (Perkin-Elmer Life Sciences, Inc. Boston, Mass.). Blank values (buffer only) were subtracted from all values and drug treated values were compared to vehicle treated values. 1 μM cold MCP-1 was used for nonspecific binding.
Where an IC50 value was not obtained for a particular compound, the percent inhibition is provided at a test concentration of 25 μM.

As usually defined, the IC50 is the concentration needed to halve the response being measured. Take `Cn1nc(NCC(=O)NC2CN(C3CCC(O)(c4cncs4)CC3)C2)c2cc(OC(F)(F)F)ccc21` (stereo not shown) [Example 55, N-[1-(4-Hydroxy-4-thiazol-5-yl-cyclohexyl)-azetidin-3-yl]-2-(1-methyl-5-trifluoromethoxy-1H-indazol-3-ylamino)-acetamide]: the IC50 came out at 0.042 µM.

As to `COc1ccc(C2(O)CCC(N3CC(NC(=O)CNc4nn(C)c5ccc(OC(F)(F)F)cc45)C3)CC2)cn1` (stereo not shown) [Example 57], the IC50 came out at 0.06 µM.

For `CC(C)C1CCC(N2CC(NC(=O)CNc3nn(C)c4ccc(OC(F)(F)F)cc34)C2)CC1` (stereo not shown) [Example 59], the IC50 amounted to 0.34 µM.

As for `CCOC(=O)C1CCC(N2CC(NC(=O)CNc3nn(C)c4ccc(C(O)C(F)(F)F)cc34)C2)CC1` (stereo not shown) [Example 60, 4-(3-{2-[1-Methyl-5-(2,2,2-trifluoro-1-hydroxy-ethyl)-1H-indazol-3-ylamino]-acetylamino}-azetidin-1-yl)-cyclohexanecarboxylic acid ethyl ester], the IC50 was 2.09 µM.

Consider `Cn1nc(NCC(=O)NC2CN(C3CCC(O)(c4cncs4)CC3)C2)c2cc(C(O)C(F)(F)F)ccc21` (stereo not shown) [Example 61, N-[1-(4-Hydroxy-4-thiazol-5-yl-cyclohexyl)-azetidin-3-yl]-2-[1-methyl-5-(2,2,2-trifluoro-1-hydroxy-ethyl)-1H-indazol-3-ylamino]-acetamide], for which the IC50 was found to be 1.7 µM.

Turning to `CCc1ncc(C2(O)CCC(N3CC(NC(=O)CNc4nn(C)c5ccc(C(O)C(F)(F)F)cc45)C3)CC2)s1` (stereo not shown) [Example 62, N-{1-[4-(2-Ethyl-thiazol-5-yl)-4-hydroxy-cyclohexyl]-azetidin-3-yl}-2-[1-methyl-5-(2,2,2-trifluoro-1-hydroxy-ethyl)-1H-indazol-3-ylamino]-acetamide], the IC50 stood at 1.5 µM.

With `Cc1ccc(C2(O)CCC(N3CC(NC(=O)CNc4nn(C)c5ccc(C(O)C(F)(F)F)cc45)C3)CC2)cn1` (stereo not shown) [Example 63, N-{1-[4-Hydroxy-4-(6-methyl-pyridin-3-yl)-cyclohexyl]-azetidin-3-yl}-2-[1-methyl-5-(2,2,2-trifluoro-1-hydroxy-ethyl)-1H-indazol-3-ylamino]-acetamide], the IC50 turned out to be 3.4 µM.

On to `Cn1nc(NCC(=O)NC2CN(C3CCC(c4ccc5c(c4)OCO5)CC3)C2)c2cc(C(O)C(F)(F)F)ccc21` (stereo not shown) [Example 64, N-[1-(4-Benzo[1,3]dioxol-5-yl-cyclohexyl)-azetidin-3-yl]-2-[1-methyl-5-(2,2,2-trifluoro-1-hydroxy-ethyl)-1H-indazol-3-ylamino]-acetamide], for which the IC50 was determined as 0.3 µM.

On to `Cn1nc(NCC(=O)NC2CN(C3CCC(O)(c4cncs4)CC3)C2)c2cc(C(F)C(F)(F)F)ccc21` (stereo not shown) [Example 65, N-[1-(4-Hydroxy-4-thiazol-5-yl-cyclohexyl)-azetidin-3-yl]-2-[1-methyl-5-(1,2,2,2-tetrafluoro-ethyl)-1H-indazol-3-ylamino]-acetamide], for which the IC50 is 0.1 µM.

With `Cn1nc(NCC(=O)NC2CN(C3CCC(O)(c4nccs4)CC3)C2)c2cc(C(F)C(F)(F)F)ccc21` (stereo not shown) [Example 66, N-[1-(4-Hydroxy-4-thiazol-2-yl-cyclohexyl)-azetidin-3-yl]-2-[1-methyl-5-(1,2,2,2-tetrafluoro-ethyl)-1H-indazol-3-ylamino]-acetamide], the IC50 turned out to be 0.037 µM.

As to `CCn1nc(NCC(=O)NC2CN(C3CCC(O)(c4cncs4)CC3)C2)c2cc(C(F)(F)F)ccc21` (stereo not shown) [Example 67, 2-(1-Ethyl-5-trifluoromethyl-1H-indazol-3-ylamino)-N-[1-(4-hydroxy-4-thiazol-5-yl-cyclohexyl)-azetidin-3-yl]-acetamide], the IC50 was determined as 0.0084 µM.

Turning to `CCn1nc(NCC(=O)NC2CN(C3CCC(O)(c4nccs4)CC3)C2)c2cc(C(F)(F)F)ccc21` (stereo not shown) [Example 68, 2-(1-Ethyl-5-trifluoromethyl-1H-indazol-3-ylamino)-N-[1-(4-hydroxy-4-thiazol-2-yl-cyclohexyl)-azetidin-3-yl]-acetamide], the IC50 stood at 0.051 µM.

Take `CCn1nc(NCC(=O)NC2CN(C3CCC(O)(c4cnc(C)s4)CC3)C2)c2cc(C(F)(F)F)ccc21` (stereo not shown) [Example 69, 2-(1-Ethyl-5-trifluoromethyl-1H-indazol-3-ylamino)-N-{1-[4-hydroxy-4-(2-methyl-thiazol-5-yl)-cyclohexyl]-azetidin-3-yl}-acetamide]: the IC50 worked out at 0.0086 µM.

For `CCn1nc(NCC(=O)NC2CN(C3CCC(C(C)C)CC3)C2)c2cc(C(F)(F)F)ccc21` (stereo not shown) [Example 71, 2-(1-Ethyl-5-trifluoromethyl-1H-indazol-3-ylamino)-N-[1-(4-isopropyl-cyclohexyl)-azetidin-3-yl]-acetamide], the IC50 came out at 0.73 µM.

In the case of `CCOC(=O)C1CCC(N2CC(NC(=O)CNc3nn(CC(F)(F)F)c4ccc(C(F)(F)F)cc34)C2)CC1` (stereo not shown) [Example 72, 4-(3-{2-[1-(2,2,2-Trifluoro-ethyl)-5-trifluoromethyl-1H-indazol-3-ylamino]-acetylamino}-azetidin-1-yl)-cyclohexane carboxylic acid ethyl ester], the IC50 was found to be 0.23 µM.

Take `CCc1ncc(C2(O)CCC(N3CC(NC(=O)CNc4nn(CC(F)(F)F)c5ccc(C(F)(F)F)cc45)C3)CC2)s1` (stereo not shown) [Example 73, N-{1-[4-(2-Ethyl-thiazol-5-yl)-4-hydroxy-cyclohexyl]-azetidin-3-yl}-2-[1-(2,2,2-trifluoro-ethyl)-5-trifluoromethyl-1H-indazol-3-ylamino]-acetamide]: the IC50 stood at 0.16 µM.

Consider `Cc1ccc(C2(O)CCC(N3CC(NC(=O)CNc4nn(CCO)c5ccc(C(F)(F)F)cc45)C3)CC2)cn1` (stereo not shown) [Example 74, 2-[1-(2-Hydroxy-ethyl)-5-trifluoromethyl-1H-indazol-3-ylamino]-N-{1-[4-hydroxy-4-(6-methyl-pyridin-3-yl)-cyclohexyl]-azetidin-3-yl}-acetamide], for which the IC50 was 0.055 µM.

For the compound `COc1ccc(C2(O)CCC(N3CC(NC(=O)CNc4nn(CCO)c5ccc(C(F)(F)F)cc45)C3)CC2)cn1` (stereo not shown) [Example 75, 2-[1-(2-Hydroxy-ethyl)-5-trifluoromethyl-1H-indazol-3-ylamino]-N-{1-[4-hydroxy-4-(6-methoxy-pyridin-3-yl)-cyclohexyl]-azetidin-3-yl}-acetamide], the IC50 amounted to 0.032 µM.

On to `O=C(CNc1nn(CCO)c2ccc(C(F)(F)F)cc12)NC1CN(C2CCC(O)(c3cncs3)CC2)C1` (stereo not shown) [Example 76], for which the IC50 came to 0.029 µM.

As for `Cc1cnc(C2(O)CCC(N3CC(NC(=O)CNc4nn(CCO)c5ccc(C(F)(F)F)cc45)C3)CC2)s1` (stereo not shown) [Example 77, 2-[1-(2-Hydroxy-ethyl)-5-trifluoromethyl-1H-indazol-3-ylamino]-N-{1-[4-hydroxy-4-(5-methyl-thiazol-2-yl)-cyclohexyl]-azetidin-3-yl}-acetamide], the IC50 was determined as 0.031 µM.

As for `CC(C)(C)NC(=O)n1nc(NCC(=O)NC2CN(C3CCC(O)(c4nccs4)CC3)C2)c2cc(C(F)(F)F)ccc21` (stereo not shown) [Example 80, 3-({[1-(4-Hydroxy-4-thiazol-2-yl-cyclohexyl)-azetidin-3-ylcarbamoyl]-methyl}-amino)-5-trifluoromethyl-indazole-1-carboxylic acid tert-butylamide], the IC50 was 0.075 µM.

With `NC(=O)n1nc(NCC(=O)NC2CN(C3CCC(O)(c4nccs4)CC3)C2)c2cc(C(F)(F)F)ccc21` (stereo not shown) [Example 81, 3-({[1-(4-Hydroxy-4-thiazol-2-yl-cyclohexyl)-azetidin-3-ylcarbamoyl]-methyl}-amino)-5-trifluoromethyl-indazole-1-carboxylic acid amide], the IC50 was found to be 0.029 µM.

For `CCOc1ccc(C2(O)CCC(N3CC(NC(=O)CNc4nn(C(=O)NC(C)(C)C)c5ccc(C(F)(F)F)cc45)C3)CC2)cn1` (stereo not shown) [Example 82, 3-[({1-[4-(6-Ethoxy-pyridin-3-yl)-4-hydroxy-cyclohexyl]-azetidin-3-ylcarbamoyl}-methyl)-amino]-5-trifluoromethyl-indazole-1-carboxylic acid tert-butylamide], the half-maximal inhibitory concentration (IC50) amounted to 0.034 µM.

With `CCOc1ccc(C2(O)CCC(N3CC(NC(=O)CNc4nn(C(N)=O)c5ccc(C(F)(F)F)cc45)C3)CC2)cn1` (stereo not shown) [Example 83, 3-[({1-[4-(6-Ethoxy-pyridin-3-yl)-4-hydroxy-cyclohexyl]-azetidin-3-ylcarbamoyl}-methyl)-amino]-5-trifluoromethyl-indazole-1-carboxylic acid amide], the IC50 stood at 0.022 µM.

In the case of `CC(C)(C)NC(=O)n1nc(NCC(=O)NC2CN(C3CCC(O[Si](C)(C)C(C)(C)C)CC3)C2)c2cc(C(F)(F)F)ccc21` (stereo not shown) [Example 84, 3-[({1-[4-(tert-Butyl-dimethyl-silanyloxy)-cyclohexyl]-azetidin-3-ylcarbamoyl}-methyl)-amino]-5-trifluoromethyl-indazole-1-carboxylic acid tert-butylamide], the IC50 was found to be 0.87 µM.

(Values after patent US8436023B2, “Cyclohexyl-azetidinyl antagonists of CCR2” (Janssen Pharmaceutica N.V., priority 2010, dated 2013).)
